Experimental data: US11559575B2, “Multi-epitopic peptide compounds and vaccines against leishmaniasis” (INSTITUT DE RECHERCHE POUR LE DEVELOPPEMENT, priority 2018, dated 2023)
“Also recorded” adds a separate entry of the source.

Assays:
HLA alleles of class I = assay: Affinity of epitopes for HLA alleles of class I; type: binding, human; details: for Affinity allele class I: LmLRAB-IIA peptides
Text: (§1) The multiepitopic peptide compounds (24 to 40-mer), having a high affinity with a maximized number of HLA molecules of class I and of class II, such as the affinities for the alleles HLA of class I and HLA of class II of the epitopes in the peptides of the sequences SEQ ID NO: 22, 23, 65, 66, 69, 73, 77, 96, 97, 137, 138, and 157, 185, have a high immunoprevalent potential corresponding to an optimal vaccine coverage, in particular for the populations concerned. The degree of coverage of the peptide compounds of the invention show a very high added value compared with the peptides of the prior art.

HLA alleles of class II = assay: Affinity of epitopes for HLA alleles of class II; type: binding, human; details: for Concatenation affinity for the HLA alleles of class II: H2B-II peptides; for Concatenation affinity for the HLA alleles of class II / Affinity HLA alleles of class II: Table 1; for Affinity HLA alleles of class II: H2B-II core epitopes; for Concatenation affinity for HLA alleles of class II: Table 2
Text: as §1

[1] = LmlRAB-IIB Peptide CII, Table 2

Sequence: RLHSVVGRH (Leishmania major) [SEQ ID NO: 93]
- Affinity allele class I (HLA alleles of class I; Table 2): HLA-A*03:01, HLA-A*30:02

Sequence: ENAIVTSRK (Leishmania major) [SEQ ID NO: 129]
- Concatenation affinity for HLA alleles of class I (HLA alleles of class I; [1]): HLA-A*68:01

Sequence: KVQEEVFDL (Leishmania major) [SEQ ID NO: 132]
- Concatenation affinity for HLA alleles of class I (HLA alleles of class I; [1]): HLA-A*02:01, HLA-A*02:06, HLA-A*32:01

Sequence: LFTDVHYSEV (Leishmania major) [SEQ ID NO: 133]
- Concatenation affinity for HLA alleles of class I (HLA alleles of class I; [1]): HLA-A*01:01

Sequence: GSDYSHSMIR (listed as Leishmania infantum) [SEQ ID NO: 179]
- Concatenation affinity for HLA alleles of class I (HLA alleles of class I; PSA KC-2.7 peptides, Table 3): HLA-A*03:01

Sequence: FDLFTDVHY (Leishmania major) [SEQ ID NO: 130]
- Concatenation affinity for HLA alleles of class I (HLA alleles of class I; [1]): HLA-A*02:01, HLA-B*35:01

Sequence: SVVGRHLSI (Leishmania major) [SEQ ID NO: 94]
- Affinity allele class I (HLA alleles of class I; Table 2): HLA-A*02:03, HLA-A*02:06, HLA-A*32:01,; also recorded: HLA-B*08:01

Sequence: KEMPSGSDY (listed as Leishmania infantum) [SEQ ID NO: 180]
- Concatenation affinity for HLA alleles of class I (HLA alleles of class I; PSA KC-2.7 peptides, Table 3): HLA-B*15:01, HLA-A*30:02,; also recorded: HLA-B*44:02, HLA-B*44:03

Sequence: KGRLHSVVG (Leishmania major) [SEQ ID NO: 92]
- Affinity allele class I (HLA alleles of class I; Table 2): HLA-A*30:1

Sequence: KGRSENAIV (Leishmania major) [SEQ ID NO: 131]
- Concatenation affinity for HLA alleles of class I (HLA alleles of class I; [1]): HLA-A*30:01

Sequence: VVGRHLSIV (Leishmania major) [SEQ ID NO: 95]
- Affinity allele class I (HLA alleles of class I; Table 2): HLA-A*02:03

Sequence: FLTDEKTSL (listed as Leishmania infantum) [SEQ ID NO: 146]
- Affinity HLA alleles of class I (HLA alleles of class I; PSA KC-2.6 core, Table 3): HLA-A*02:01,; also recorded: HLA-A*02:03,; also recorded: HLA-A*02:06,; also recorded: HLA-B*39:01

Sequence: LTDEKTSLVY (listed as Leishmania infantum) [SEQ ID NO: 154]
- Concatenation affinity allele CII (HLA alleles of class I; PSA KC-2.6 Peptide CII, Table 3): HLA-A*01:01, HLA-B*15:01

Sequence: RSLKAINAWMSMSHR (RSLKAINAQMSMSHR; Leishmania major) [SEQ ID NO: 36]
- Concatenation affinity for the HLA alleles of class II (HLA alleles of class II): HLA-DRB1*04:01, HLA-DRB1*15:01, HLA-DRB1*05:01,; also recorded: HLA-DRB1*01:01, HLA-DRB1*04:05, HLA-DRB1*07:01,; also recorded: HLA-DRB1*08:02, HLA-DRB1*09:01, HLA-DRB1*11:01,; also recorded: HLA-DRB4*01:01,

Sequence: YVGRSLKAI (Leishmania major) [SEQ ID NO: 54]
- Affinity HLA alleles of class II (HLA alleles of class II): HLA-DRB1*08:02,; also recorded: HLA-DPA1*02:01/; also recorded: DPB1*01:01

Sequence: LHSVVGRHLSIVADH (Leishmania major) [SEQ ID NO: 81]
- Concatenation affinity for HLA alleles of class II (HLA alleles of class II; LmLRAB-IIA peptides): HLA-DRB1*07:01,; also recorded: HLA-DRB1*15:01,; also recorded: HLA-DRB5*01:01,; also recorded: HLA-DRB1*11:01,; also recorded: HLA-DRB1*09:01,

Sequence: GRSLKAINA (Leishmania major) [SEQ ID NO: 43]
- Affinity HLA alleles of class II (HLA alleles of class II): HLA-DRB1*01:01

Sequence: EEVFDLFTDVHYSEV (Leishmania major) [SEQ ID NO: 100]
- Concatenation affinity for HLA alleles of class II (HLA alleles of class II; LmlRAB-IIB peptides): HLA-DRB1*01:01, HLA-DRB1*03:01,; also recorded: HLA-DRB1*04:01, HLA-DRB1*04:05,; also recorded: HLA-DRB1*07:01, HLA-DRB1*15:01,; also recorded: HLA-DRB1*12:01, HLA-DRB3*01:01,; also recorded: HLA-DPA1*01:03/DPB1*02:01,; also recorded: HLA-DPA1*01/DPB1*04:01, HLA-DPA1*02:01/; also recorded: HLA-DPB1*14:01

Sequence: WNVYVGRSL (Leishmania major) [SEQ ID NO: 53]
- Affinity HLA alleles of class II (HLA alleles of class II): HLA-DRB1*04:05,; also recorded: HLA-DRB1*07:01,; also recorded: HLA-DRB1*09:01,; also recorded: HLA-DRB1*15:01,; also recorded: HLA-DRB5*01:01

Sequence: LFTDVHYSEVSAKTK (Leishmania major) [SEQ ID NO: 108]
- Concatenation affinity for HLA alleles of class II (HLA alleles of class II; LmlRAB-IIB peptides): HLA-DRB1*01:01, HLA-DRB1*04:01,; also recorded: HLA-DRB1*07:01, HLA-DRB1*09:01,; also recorded: HLA-DRB5*01:01, HLA-DPA1*01:03/DPB1*02:01,; also recorded: HLA-DPA1*01/DPB1*04:01,; also recorded: HLA-DPA1*02:01/HLA-DPB1*14:01

Sequence: VYVGRSLKAINAQMS (Leishmania major) [SEQ ID NO: 32]
- Concatenation affinity for the HLA alleles of class II (HLA alleles of class II): HLA-DRB1*01:01, HLA-DRB1*04:05, HLA-DRB1*07:01,; also recorded: HLA-DRB4*01:01, HLA-DRB1*04:01, HLA-DRB1*09:01,; also recorded: HLA-DRB1*03:01, HLA-DRB1*11:01, HLA-DRB1*15:01,; also recorded: HLA-DRB1*08:02

Sequence: RKPKRSWNVYVGRSL (Leishmania major) [SEQ ID NO: 24]
- Concatenation affinity for the HLA alleles of class II (HLA alleles of class II): HLA-DRB1*13:02, HLA-DRB1*01:01, HLA-DRB1*07:01,; also recorded: HLA-DRB1*09:01, HLA-DRB1*15:01
